# Measured values from patent US20220267394A1, “COMPOUNDS FOR INDUCING TISSUE FORMATION AND USES THEREOF” (HISTIDE AG, priority 2015, published 2022).
# Test system: hMSCs
# Assay: Loss of stemness: STRO-1 expression by immunostaining
# Assay type: cell-based, human
# Conditions: Table 6, previously reported peptides in solution, 400 ng/mL
# Procedure: The cells were first fixed for 20 min with 4% paraformaldehyde/PBS at 4° C. After fixation, the cells were permeabilized in PBS containing 1% Triton X-100 for 15 min. Runx2, Osterix, Stro-1, Vinculin, Phalloidin, Osteopontin, Sox2, Sox9 antibodies were visualized by treating the cells with 1% (v/v) specific monoclonal antibodies for 1 hour at 37° C. Then the samples were incubated with Alexa Fluor® 568 or 647 (F(ab′)2 fragment of IgG(H+L)) during 30 min at room temperature. The cell nuclei were counterstained in 20 ng/mL DAPI for 10 min at room temperature.
# For this type of quantification the freeware image analysis ImageJ® software was used. The raw image was first converted to an 8-bit file, and then the unsharp mask feature was used (settings 1:0.2) to remove the image background (rolling ball radius 10). After smoothing, the resulting image, which appears similar to the original photomicrograph but with minimal background, was then converted to a binary image by setting a threshold. Threshold values were determined empirically by selecting a setting, which gave the most accurate binary image for a subset of randomly selected photomicrographs. The cell area was determined by manual delineation on raw fluorescent images. Total contact area and mean contact area per cell were calculated by “analyse particules” in ImageJ®. A minimum of 30 cells per condition were analyzed. Stro-1, CD-34+, and CD-105 expressions were determined using this procedure.
# hMSCs were cultured on conventional cell culture plastic plates with or without the presence in the cell culture media of different GFR-binding compounds as described herein (SEQ ID NO: 50 to 88) in solution. […] This was probed by Stro-1 immunostaining after cell fixation as described in the Methods section. The quantification of Stro-1 positive contact numbers and areas was performed as described in the Methods section. A minimum of 30 cells per condition were analyzed. Stro-1 positive marrow cells are multipotential and capable of differentiating into multiple mesenchymal lineages including stromal cells with a phenotype resembling vascular smooth muscle cells that can support hematopoiesis, adipocytes, osteoblasts, and chondrocytes.
# Using the method detailed in the description, the RMSD of 57 previously reported peptide sequences have been determined (Table 6) and correlated with the expression of STRO-1 in solution. […] One should note that it is commonly admitted that the expression of STRO-1 in a cell is indicative of a cell that is in a substantially non-differentiated state and the decrease of its expression of at least about 20% is indicative of a cell that has started a process of differentiation but which may not result in the differentiation of the cell. A decrease of more than 50% would be indicative of the presence of a significant shift towards a differentiated state. A decrease of more than 70% would be indicative of the presence of a very important shift towards a differentiated state. A sustained decrease (e.g. for at least 96 h) of more than 50% or 70% would be indicative of the presence of an even more important shift towards a differentiated state.
# Likewise, using the method detailed in the description, the RMSD of 75 GFR-binding peptide sequence representatives of the invention have been determined (Table 8) and correlated with the expression of STRO-1. SEQ ID NO: 1 to 49 were tested in combination with a bioactive carrier as defined above in the Examples Section (i.e. titanium, ceramics, collagen, etc. . . . ), whereas SEQ ID NO: 2242 to 2267 were tested in solution.
row,Substance,STRO-1 expression (%)
1,"2203 (TCCVPELSAISMLYLDEN; Peptide reported in US5496552, SEQ ID NO:5) [compound 2203]",84
2,"2204 (KIPKPSSAPTELSAISMLC; Peptide reported in WO2009151288, SEQ ID NO:6) [compound 2204]",82
3,"2205 (KIPKPSSAPTELSAISMLYC; Peptide reported in WO2009151288, SEQ ID NO:5) [compound 2205]",80
4,"2206 (CIPKPSSAPTELSAISMLYL; Peptide reported in WO2009151288, SEQ ID NO:2) [compound 2206]",83
5,"2207 (CKIPKPSSAPTELSAISMLYL; Peptide reported in WO2009151288, SEQ ID NO:1) [compound 2207]",78
6,"2208 (AETLHTLGLSAPVIESAISDAI; Peptide reported in WO2013040142, SEQ ID NO:629725) [compound 2208]",93
7,"2209 (MRTESTPTTASAISYECLWSPPSNEAAKLHFDS; Peptide reported in US20070083334, SEQ ID NO:966410) [compound 2209]",94
8,"2210 (SRVLPIVVQGYVPVQDTKFLGIYYVIGPIIARVILSSSSAISSLNKS; Peptide reported in US20040031072, SEQ ID NO:188005) [compound 2210]",84
9,2211 (CCAPTELSAISVLYFDDSSNVILKKYRNMVVRACGCR; Comparative sequence) [compound 2211],81
10,2212 (CCAPTQLSAISVLYFDDSSNVILKKYRNMVVRACGCR; Comparative sequence) [compound 2212],82
11,"2213 (KPCCAPTQLSAISVLYFDDSSNVILKKYRNMVVRACGCR; Peptide reported in US20050250936, SEQ ID NO:123) [compound 2213]",80
12,"2214 (KPCCAPTELSAISVLYFDDSSNVILKKYRNMVVRACGCR; Peptide reported in US20050250936, SEQ ID NO:122) [compound 2214]",83

# Same assay, conditions: Table 8, SEQ ID NO: 2242 to 2267 tested in solution
row,Substance,STRO-1 expression (%)
1,2242 (VPTAASAISILYLDAANNVVLKNYQAAVVE; GFR-binding peptide) [compound 2242],17
2,2243 (VPEAASSLSMLFFEIVRKKPIFLKVYPAATVE; GFR-binding peptide) [compound 2243],19
3,2244 (VPTVVSAISTLYLRIKPHQGQHLKNYQVVVVE; GFR-binding peptide) [compound 2244],21
4,2245 (APTLLNAISMLYFNDKQQIILKKYRLLVVR; GFR-binding peptide) [compound 2245],22
5,2246 (APTGGSATSMLYYDKGVVTYLRKHRGGVVK; GFR-binding peptide) [compound 2246],23
6,2247 (VPTSSSPISTLYIDKGVVTYLKYHYSSVAE; GFR-binding peptide) [compound 2247],20
7,2248 (VPTAAEPISMLYLDEYDKVVKFKYEAAAVS; GFR-binding peptide) [compound 2248],26
8,2249 (TPTSSSPINTLYFDDMGVPTYGKIPSSVVD; GFR-binding peptide) [compound 2249],25
9,2250 (VPTVVSPISMLYIDDMGVPTYKQYEVVVVE; GFR-binding peptide) [compound 2250],26
10,2251 (APVAAKPLSMLYVDKGVVTYDHHKDAAVEE; GFR-binding peptide) [compound 2251],22
11,2252 (VPQAAEPLPMLYYDKGVVTYEQLSNAAVRS; GFR-binding peptide) [compound 2252],19
12,2253 (VPQQQEPLTTLYYDEYDKVVEQLSNQQVKS; GFR-binding peptide) [compound 2253],18
13,2254 (VPTMMSNITTQIMRIKPHQGQHIGEMSMMQHN; GFR-binding peptide) [compound 2254],19
14,2255 (SRVAARSVKMAKVGGGGGGGKEVQVAAEEH; GFR-binding peptide) [compound 2255],31
15,2256 (VPTDDSATSTLYYDKGVVTYLRKHRDDEHS; GFR-binding peptide) [compound 2256],27
16,2257 (VPTGGEPLTTLYYNDKQQIIEQLSNGGEHS; GFR-binding peptide) [compound 2257],26
17,2258 (SRVLLRPVQMRKIDKGVVTYKKATVLLEEH; GFR-binding peptide) [compound 2258],21
18,2259 (TQVAARPVQTRKIDDMGVPTKKATVAAEDH; GFR-binding peptide) [compound 2259],23
19,2260 (VPQRLEPLTILYYDAANNVVEQLSNDMVKS; GFR-binding peptide) [compound 2260],23
20,2261 (NDEGLESVPTGQSPISILYIRIKPHQGQHYKQYELEEHSQSESR; GFR-binding peptide) [compound 2261],17
21,2262 (HVTKPTSVPTKLSPISILFIDDSSNVIYKQYENMVVESSGSH; GFR-binding peptide) [compound 2262],18
22,2263 (ASASPSSAPVDLKPLSMLYVIGKTPKIDHHKDMIVEESKSS; GFR-binding peptide) [compound 2263],16
23,2264 (KIPKASSVPQELEPLPIVYYDENEKVVEQLSNDMVRSGSGSR; GFR-binding peptide) [compound 2264],24
24,2265 (AVPKASSVPQKLEPLTILYYDSSNNVIEQLSNNMVKSASGSH; GFR-binding peptide) [compound 2265],21
25,2266 (RVPSTSSAPVKTSNITMQIMDNGRVLLLGEMSMIVEESGSL; GFR-binding peptide) [compound 2266],22
26,2267 (ASASPSSVSQDLRSVKVAKVIGKTPKIKEVQVMIVKSSKSS; GFR-binding peptide) [compound 2267],34
